# Assay results published in ChEMBL document CHEMBL1201862, “PubChem BioAssay data set” (2004).
# Structures can show the parent of a compound that is named as a salt.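 1) Cells in 96-well plates. 2) Compound, 48 h, 5 concentrations. 3) Linear interpolation between surrounding doses. 4) Unreached endpoint = highest concentration. The concentration for 50% growth inhibition is given as GI50.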 The source made the active and inactive calls. No stated cut-off is given here; in the data, active = GI50 up to about 1.1 µM and inactive = higher.
# Experiments:
# Assay in all cases: growth of human tumour cells (NCI), 48 h
# 786-0 = system: 786-0
# A498 = system: A498
# A549 = system: A549
# ACHN = system: ACHN
# BT-549 = system: BT-549
# CAKI-1 = system: CAKI-1
# CCRF-CEM = system: CCRF-CEM
# COLO 205 = system: COLO 205
# DU-145 = system: DU-145
# EKVX = system: EKVX
# HCC 2998 = system: HCC 2998
# HCT-116 = system: HCT-116
# HCT-15 = system: HCT-15
# HL-60 = system: HL-60
# HOP-62 = system: HOP-62
# HOP-92 = system: HOP-92
# HT-29 = system: HT-29
# Hs-578T = system: Hs-578T
# IGROV-1 = system: IGROV-1
# K562 = system: K562
# KM12 = system: KM12
# LOX IMVI = system: LOX IMVI
# M14 = system: M14
# MCF7 = system: MCF7
# MDA-MB-231 = system: MDA-MB-231
# MDA-MB-435 = system: MDA-MB-435
# MDA-N = system: MDA-N
# MOLT-4 = system: MOLT-4
# Malme-3M = system: Malme-3M
# NCI-H226 = system: NCI-H226
# NCI-H23 = system: NCI-H23
# NCI-H460 = system: NCI-H460
# NCI-H522 = system: NCI-H522
# NCI/ADR-RES = system: NCI/ADR-RES
# OVCAR-3 = system: OVCAR-3
# OVCAR-4 = system: OVCAR-4
# OVCAR-5 = system: OVCAR-5
# OVCAR-8 = system: OVCAR-8
# PC-3 = system: PC-3
# RPMI-8226 = system: RPMI-8226
# RXF 393 = system: RXF 393
# SF-268 = system: SF-268
# SF-295 = system: SF-295
# SF-539 = system: SF-539
# SK-MEL-28 = system: SK-MEL-28
# SK-MEL-2 = system: SK-MEL-2
# SK-MEL-5 = system: SK-MEL-5
# SK-OV-3 = system: SK-OV-3
# SN12C = system: SN12C
# SNB-19 = system: SNB-19
# SNB-75 = system: SNB-75
# SR = system: SR
# SW-620 = system: SW-620
# T47D = system: T47D
# TK-10 = system: TK-10
# U-251 = system: U-251
# UACC-257 = system: UACC-257
# UACC-62 = system: UACC-62
# UO-31 = system: UO-31
# DMS-114 = system: DMS-114
# KM-20L2 = system: KM-20L2
smiles,measurement,setting,value
COc1ccc2cc(CN3CCC(C4CCNCC4)CC3)ccc2c1,GI50,786-0,1.67 µM (inactive)
same,GI50,A498,5.33 µM (inactive)
same,GI50,A549,12.2 µM (inactive)
same,GI50,ACHN,3.61 µM (inactive)
same,GI50,BT-549,8.67 µM (inactive)
same,GI50,CAKI-1,2.48 µM (inactive)
same,GI50,CCRF-CEM,1.96 µM (inactive)
same,GI50,COLO 205,1.69 µM (inactive)
same,GI50,DU-145,4.2 µM (inactive)
same,GI50,EKVX,5.02 µM (inactive)
same,GI50,HCC 2998,0.412 µM (active)
same,GI50,HCT-116,1.8 µM (inactive)
same,GI50,HCT-15,2.28 µM
same,GI50,HL-60,1.49 µM (inactive)
same,GI50,HOP-62,2.67 µM (inactive)
same,GI50,HOP-92,1.79 µM (inactive)
same,GI50,HT-29,1.3 µM (inactive)
same,GI50,Hs-578T,2.93 µM (inactive)
same,GI50,IGROV-1,3.7 µM (inactive)
same,GI50,K562,0.959 µM (active)
same,GI50,KM12,2.11 µM (inactive)
same,GI50,LOX IMVI,1.6 µM (inactive)
same,GI50,M14,2.06 µM (inactive)
same,GI50,MCF7,2.11 µM (inactive)
same,GI50,MDA-MB-231,2.2 µM (inactive)
same,GI50,MDA-MB-435,1.91 µM (inactive)
same,GI50,MDA-N,2.02 µM (inactive)
same,GI50,MOLT-4,0.437 µM (active)
same,GI50,Malme-3M,1.72 µM (inactive)
same,GI50,NCI-H226,7.93 µM (inactive)
same,GI50,NCI-H23,12 µM (inactive)
same,GI50,NCI-H460,1.93 µM (inactive)
same,GI50,NCI-H522,2.17 µM (inactive)
same,GI50,NCI/ADR-RES,2.88 µM (inactive)
same,GI50,OVCAR-3,5.41 µM (inactive)
same,GI50,OVCAR-4,8.97 µM (inactive)
same,GI50,OVCAR-5,7.76 µM (inactive)
same,GI50,OVCAR-8,3.4 µM (inactive)
same,GI50,PC-3,7.8 µM (inactive)
same,GI50,RPMI-8226,1.53 µM (inactive)
same,GI50,RXF 393,2.28 µM (inactive)
same,GI50,SF-268,2.58 µM (inactive)
same,GI50,SF-295,1.89 µM (inactive)
same,GI50,SF-539,1.71 µM (inactive)
same,GI50,SK-MEL-28,1.75 µM (inactive)
same,GI50,SK-MEL-2,1.91 µM (inactive)
same,GI50,SK-MEL-5,1.79 µM (inactive)
same,GI50,SK-OV-3,10 µM (inactive)
same,GI50,SN12C,6.85 µM (inactive)
same,GI50,SNB-19,6.65 µM (inactive)
same,GI50,SNB-75,1.91 µM (inactive)
same,GI50,SR,2.07 µM (inactive)
same,GI50,SW-620,1.82 µM (inactive)
same,GI50,T47D,2.33 µM (inactive)
same,GI50,TK-10,3.79 µM (inactive)
same,GI50,U-251,1.91 µM (inactive)
same,GI50,UACC-257,1.87 µM (inactive)
same,GI50,UACC-62,1.97 µM (inactive)
same,GI50,UO-31,2.45 µM (inactive)
O=C1C=CC(=O)C(CNc2ccc(C(=O)OC34CC5CC(CC(C5)C3)C4)cc2)=C1,GI50,786-0,10.3 µM (inactive)
same,GI50,A498,11.7 µM (inactive)
same,GI50,A549,16.1 µM (inactive)
same,GI50,ACHN,6.28 µM (inactive)
same,GI50,BT-549,5.12 µM (inactive)
same,GI50,CAKI-1,0.753 µM (active)
same,GI50,CCRF-CEM,1.34 µM (inactive)
same,GI50,COLO 205,2.04 µM (inactive)
same,GI50,DU-145,19.4 µM (inactive)
same,GI50,EKVX,6.53 µM (inactive)
same,GI50,HCC 2998,15 µM (inactive)
same,GI50,HCT-116,10 µM (inactive)
same,GI50,HCT-15,2.44 µM
same,GI50,HL-60,1.53 µM (inactive)
same,GI50,HOP-62,11.4 µM (inactive)
same,GI50,HOP-92,3.28 µM (inactive)
same,GI50,HT-29,9.44 µM (inactive)
same,GI50,Hs-578T,2.38 µM (inactive)
same,GI50,IGROV-1,1.54 µM (inactive)
same,GI50,K562,4.52 µM (inactive)
same,GI50,KM12,5.94 µM (inactive)
same,GI50,LOX IMVI,4.57 µM (inactive)
same,GI50,M14,12.6 µM (inactive)
same,GI50,MCF7,3.43 µM (inactive)
same,GI50,MDA-MB-231,14 µM (inactive)
same,GI50,MDA-MB-435,5.93 µM (inactive)
same,GI50,MDA-N,4.73 µM (inactive)
same,GI50,MOLT-4,1.51 µM (inactive)
same,GI50,Malme-3M,4.58 µM (inactive)
same,GI50,NCI-H226,2 µM (inactive)
same,GI50,NCI-H23,6.67 µM (inactive)
same,GI50,NCI-H460,15.2 µM (inactive)
same,GI50,NCI-H522,0.776 µM (active)
same,GI50,NCI/ADR-RES,3.44 µM (inactive)
same,GI50,OVCAR-3,3.06 µM (inactive)
same,GI50,OVCAR-4,3.01 µM (inactive)
same,GI50,OVCAR-5,15.1 µM (inactive)
same,GI50,OVCAR-8,5.11 µM (inactive)
same,GI50,PC-3,6.07 µM (inactive)
same,GI50,RPMI-8226,1.93 µM (inactive)
same,GI50,RXF 393,1.71 µM (inactive)
same,GI50,SF-268,11.9 µM (inactive)
same,GI50,SF-295,16.6 µM (inactive)
same,GI50,SF-539,2.49 µM (inactive)
same,GI50,SK-MEL-28,4.69 µM (inactive)
same,GI50,SK-MEL-2,15.1 µM (inactive)
same,GI50,SK-MEL-5,4.38 µM (inactive)
same,GI50,SK-OV-3,20 µM (inactive)
same,GI50,SN12C,11.3 µM (inactive)
same,GI50,SNB-19,12.8 µM (inactive)
same,GI50,SNB-75,3.39 µM (inactive)
same,GI50,SR,3.81 µM (inactive)
same,GI50,SW-620,10.5 µM (inactive)
same,GI50,T47D,2.49 µM (inactive)
same,GI50,TK-10,11.5 µM (inactive)
same,GI50,U-251,4.06 µM (inactive)
same,GI50,UACC-257,6.04 µM (inactive)
same,GI50,UACC-62,5.14 µM (inactive)
same,GI50,UO-31,4.24 µM (inactive)
COc1ccc2c(=O)c(C)c(-c3ccccc3)oc2c1CN(C)C [DIMEFLINE HYDROCHLORIDE],GI50,A498,56.4 µM (inactive)
same,GI50,DMS-114,> 100 µM (inactive)
same,GI50,EKVX,> 100 µM (inactive)
same,GI50,HCT-15,> 100 µM
same,GI50,K562,57.1 µM (inactive)
same,GI50,KM-20L2,58.2 µM (inactive)
same,GI50,LOX IMVI,69.3 µM (inactive)
same,GI50,NCI-H460,82.8 µM (inactive)
same,GI50,OVCAR-3,> 100 µM (inactive)
same,GI50,OVCAR-5,47.1 µM (inactive)
same,GI50,RXF 393,76 µM (inactive)
same,GI50,SF-268,> 100 µM (inactive)
same,GI50,SK-MEL-28,> 100 µM (inactive)
same,GI50,SK-MEL-5,55 µM (inactive)
same,GI50,SN12C,> 100 µM (inactive)
same,GI50,SR,84.5 µM (inactive)
same,GI50,SW-620,> 100 µM (inactive)
same,GI50,TK-10,99.8 µM (inactive)
same,GI50,U-251,> 100 µM (inactive)
same,GI50,UACC-257,> 100 µM (inactive)
same,GI50,UO-31,85.7 µM (inactive)
CCOC(=O)CCc1cc(=O)oc2cc(O)cc(O)c12,GI50,786-0,> 100 µM (inactive)
same,GI50,A498,50.1 µM (inactive)
same,GI50,A549,> 100 µM (inactive)
same,GI50,ACHN,> 100 µM (inactive)
same,GI50,BT-549,> 100 µM (inactive)
same,GI50,CAKI-1,> 100 µM (inactive)
same,GI50,CCRF-CEM,> 100 µM (inactive)
same,GI50,COLO 205,> 100 µM (inactive)
same,GI50,DU-145,> 100 µM (inactive)
same,GI50,EKVX,62.5 µM (inactive)
same,GI50,HCC 2998,52.7 µM (inactive)
same,GI50,HCT-116,> 100 µM (inactive)
same,GI50,HCT-15,> 100 µM
same,GI50,HL-60,> 100 µM (inactive)
same,GI50,HOP-62,> 100 µM (inactive)
same,GI50,HOP-92,> 100 µM (inactive)
same,GI50,HT-29,> 100 µM (inactive)
same,GI50,Hs-578T,> 100 µM (inactive)
same,GI50,IGROV-1,> 100 µM (inactive)
same,GI50,K562,> 100 µM (inactive)
same,GI50,KM12,> 100 µM (inactive)
same,GI50,LOX IMVI,> 100 µM (inactive)
same,GI50,M14,> 100 µM (inactive)
same,GI50,MCF7,> 100 µM (inactive)
same,GI50,MDA-MB-231,> 100 µM (inactive)
same,GI50,MDA-MB-435,> 100 µM (inactive)
same,GI50,MDA-N,> 100 µM (inactive)
same,GI50,MOLT-4,> 100 µM (inactive)
same,GI50,Malme-3M,> 100 µM (inactive)
same,GI50,NCI-H226,> 100 µM (inactive)
same,GI50,NCI-H23,> 100 µM (inactive)
same,GI50,NCI-H460,> 100 µM (inactive)
same,GI50,NCI-H522,> 100 µM (inactive)
same,GI50,NCI/ADR-RES,> 100 µM (inactive)
same,GI50,OVCAR-3,> 100 µM (inactive)
same,GI50,OVCAR-4,> 100 µM (inactive)
same,GI50,OVCAR-5,> 100 µM (inactive)
same,GI50,OVCAR-8,> 100 µM (inactive)
same,GI50,PC-3,> 100 µM (inactive)
same,GI50,RPMI-8226,> 100 µM (inactive)
same,GI50,RXF 393,> 100 µM (inactive)
same,GI50,SF-268,> 100 µM (inactive)
same,GI50,SF-295,> 100 µM (inactive)
same,GI50,SF-539,> 100 µM (inactive)
same,GI50,SK-MEL-28,> 100 µM (inactive)
same,GI50,SK-MEL-2,> 100 µM (inactive)
same,GI50,SK-MEL-5,> 100 µM (inactive)
same,GI50,SK-OV-3,> 100 µM (inactive)
same,GI50,SN12C,> 100 µM (inactive)
same,GI50,SNB-19,> 100 µM (inactive)
same,GI50,SNB-75,> 100 µM (inactive)
same,GI50,SR,> 100 µM (inactive)
same,GI50,SW-620,> 100 µM (inactive)
same,GI50,T47D,> 100 µM (inactive)
same,GI50,TK-10,> 100 µM (inactive)
same,GI50,U-251,> 100 µM (inactive)
same,GI50,UACC-257,> 100 µM (inactive)
same,GI50,UACC-62,> 100 µM (inactive)
same,GI50,UO-31,> 100 µM (inactive)
